Results on ten molecules are retold here after patent US6682740B1 (Yeda Research and Development Co. Ltd., priority 1997, dated 2004).

The target of data set [1] is T1, FcεRI molecules on RBL-2H3 cells (Rattus norvegicus, UniProt P12371+P13386).
T1 construct: targeting FcεRI molecules on RBL-2H3 cells; endogenous in cells; host or cells: RBL-2H3
T1 sequence (P12371 24-245): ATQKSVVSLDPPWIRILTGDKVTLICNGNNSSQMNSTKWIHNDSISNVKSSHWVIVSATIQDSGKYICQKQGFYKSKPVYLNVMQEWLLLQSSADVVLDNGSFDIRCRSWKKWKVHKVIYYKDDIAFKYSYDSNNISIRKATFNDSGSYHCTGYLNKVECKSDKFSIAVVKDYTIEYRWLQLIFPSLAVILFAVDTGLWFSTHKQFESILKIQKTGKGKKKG
T1 sequence (P13386 1-243): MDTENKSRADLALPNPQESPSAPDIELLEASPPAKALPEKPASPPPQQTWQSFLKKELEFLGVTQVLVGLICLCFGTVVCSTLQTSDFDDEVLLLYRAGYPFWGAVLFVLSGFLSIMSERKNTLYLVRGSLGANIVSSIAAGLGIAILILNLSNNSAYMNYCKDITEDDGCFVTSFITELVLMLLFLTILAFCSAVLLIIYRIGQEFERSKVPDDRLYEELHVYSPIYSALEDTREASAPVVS
T1 sequence (P20411 19-86 partner): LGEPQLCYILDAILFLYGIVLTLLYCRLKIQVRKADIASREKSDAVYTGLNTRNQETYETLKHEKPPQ
The data set can be described thus: Homo-FRET between FITC-IgE and TRITC-IgE on RBL-2H3 cells (flow cytometry). Format: cell-based. Conditions: dE = (E/E[control] − 1) × 100; for dE % (Dose 1): Dose 1: C3a 30 μM, C3a2 110 μM, C3a5 110 μM, C3a9 290 μM, C3a14-P 250 μM; for dE % (Dose 2): Dose 2: C3a 70 μM, C3a2 270 μM, C3a5 270 μM, C3a9 670 μM, C3a14-P 630 μM. On the procedure:
The Forster-type resonance energy transfer between FITC-IgE and TRITC-IgE targeting FcεRI molecules on RBL-2H3 cells was measured (at 1:1 donor-acceptor ratio) by flow cytometry using a BectonDickinson FACStar Plus flow cytometer.

Data set [2] has as its system Ovalbumin-Sensitized Guinea Pig Model. Description: Anaphylactic shock in ovalbumin-sensitized guinea pig model (death, respiratory parameters). Format: in vivo. Conditions: except for transient changes in respiratory parameters.
Procedure: Guinea pigs (GPs), weighing 350-400 g (from Charles River, GB) were sensitized to rabbit anti-chicken egg albumin (Sigma) by i.p. injection (0.6 mg/kg, using a solution of 1.5 mg/ml in DDW). Twenty-four hours following sensitization, GPs were challenged with inhaled aerosol of chicken ovalbumin (Sigma). The aerosol was generated from an aqueous solution of 25 mg/ml and aerosolized with air 24 l/min. Exposure duration was 1-3 min, according to the required dose. […] During the challenge the GPs were restrained in plethysmographs and their tidal volume, minute volume and respiration rate parameters were monitored. The GPs that received pretreatment with tire mast cell inhibitor C3a9 treated with aerosolized C3a9 peptide (a solution of 0.25 mg/ml, aerosolized with air 24 l/min and treated for 10 min.). The treatment ended 5 min before the challenge with OA. It is estimated that under these conditions each GP inhaled about 7 μg of the peptide. Respiratory parameters of the animals were further monitored for 10 min post challenge.
Eight GPs were tested in each group.
Data set [3] deals with RBL-2H3 cells. Description: Binding of FITC-labeled C3a14-P to RBL-2H3 cells. Details: species or system rat. The conditions noted are these: for binding to RBL-2H3 cells: various concentrations, measured after washing / flow cytometry. On the procedure:
(§1) This supports proximity between the FcεR (IgE receptor) and the peptide.
RBL-2H3 cells were incubated with the peptide at various concentrations and binding was measured after washing the cells.
For orientation: A flow cytometer gives signals particle by particle.

A further data set relates to BMMC. The data set can be described thus: Binding of FITC-labeled C3a14-P to BMMC (flow cytometry). The conditions noted are these: results not shown. More on the design: species or system mouse.
Text: as §1

For data set [4], the system named is IgE-TRITC on RBL-2H3 cells. The data set can be described thus: FRET between C3a14-P-FITC and IgE-TRITC on RBL-2H3 cells. Format: binding, rat.
Data set [5] deals with RBL-2H3 cells. Description: Inhibition of antigen-induced (IgE-mediated) β-hexosaminidase secretion by RBL-2H3 cells. Format: cell-based, rat. The conditions noted are these: for inhibition of antigen-induced / IgE-dependent degranulation (β-hexosaminidase release): RBL-2H3 cells, result in words. On the procedure: Cells. Rat mucosal mast cells, subline RBL-2H3 (Barsumian et al, 1981) were maintained in Eagle's MEM with Earle's salts supplemented by 10% FCS, 2 mM glutamine and antibiotics in a humidified atmosphere with 7% CO2 at 37° C. Secretory Response of Mast Cells. Mediator secretion by mast cells in response to stimulation by FcεRI clustering was monitored by measuring the activity of the granular enzyme β-hexosaminidase. DNP-specific murine IgE mAb, A2 (3 μl ascites) was added to 10^6 cells in 10 ml MEM and incubated in 96-well plates (100 μl suspension/well) for 2 h. Then, monolayers were washed three times with Tyrode's buffer and stimulated with the antigen (DNP11-BSA). […] Following incubation at 37° C. for 1 h, 20 μl of supernatants were taken and incubated with 50 μl of substrate solution (1.3 mg/ml p-nitrophenyl-N-acetyl-β-D-glucosamine in 0.1 M sodium citrate, pH 4.5) at 37° C. for 45 min. The reaction was terminated by the addition of 150 μl of 0.2 M glycine, pH 10.7, and the optical density of the samples was measured at 405 nm. Results of one representative experiment out of four yielding similar results are presented as percent of the total cell content of the enzyme minus the basal secreted activity. […] Degranulation of the cells was monitored by measuring the activity of the enzyme β-hexosaminidase released into the supernatants after stimulation for 1 h at 37° C. and are presented as net percentages of the cells' total β-hexosaminidase activity.

For data set [6], the system named is RBL-2H3 cells. The conditions noted are these: earlier experiments, cited from earlier work.
In data set [7] the target is RBL-2H3 cells (rat mucosal mast cells), binding partner on the cell surface not identified. Description: fluorescence of washed RBL-2H3 cells, peptide dose 250 µM.
The target is the same in data set [8]. Description: fluorescence of washed RBL-2H3 cells, peptide dose 510 µM.
The target is the same in data set [9]. Description: fluorescence of washed RBL-2H3 cells, peptide dose 630 µM.

Residues, ends and D or L forms follow the SMILES beside them. No end group written: not given here.

For the molecule `CC[C@H](C)[C@H](NC(=O)[C@H](Cc1ccc(O)cc1)NC(=O)[C@H](CC(N)=O)NC(=O)[C@H](CS)NC(=O)[C@H](CS)NC(=O)[C@@H](N)CC(=O)O)C(=O)N[C@H](C(=O)N[C@@H](CCCNC(=N)N)C(N)=O)[C@@H](C)O` [C3a9] (H-DCCNYITR-NH2), in data set [1], the “dE % (Dose 1)” value is given as −64% and the “dE % (Dose 2)” value is listed as −67%. Moreover, in data set [2], the “effect of the C3a9 aerosol treatment itself on GPs (respiratory parameters)” value was “not affected by the treatment”.

With “C3a14-P-FITC: FITC-labeled peptide C3a14-P (DSSNYITR; also: FITC label, position not given here)”, the “Fluorescence Mean (w/o background)” value is recorded as 25 in the data set on RBL-2H3 cells [3] (peptide dose 250 μM), 74 with RBL-2H3 cells [3] (peptide dose 510 μM) and 157 in the data set on RBL-2H3 cells [3] (peptide dose 630 μM). In addition, the “binding to RBL-2H3 cells” value in the data set on RBL-2H3 cells [3] (listed as FITC-15 labeled C3a14-P) is on record as “showed binding”; in the data set with RBL-2H3 cells [3] (listed as FITC-Labeled C3a14-P), “specific binding, but no saturation is reached”. Besides, the “binding to BMMC” value in the data set with BMMC was “showed binding”. The “FRET Efficiency E (%)” value is 33% in data set [4] (cells incubated with amount 20 of C3a14-P-FITC (unit not given)), 17% in [4] (cells incubated with amount 40 of C3a14-P-FITC (unit not given)) and 9% in data set [4] (cells incubated with amount 60 of C3a14-P-FITC (unit not given)).

Regarding CNYITELRRQHARASHLGLAR [C3a2], the “inhibition of antigen-induced / IgE-dependent degranulation (β-hexosaminidase release)” value in the data set with RBL-2H3 cells [5] is “inhibited in a dose-dependent manner”. In addition, the “secretory response when only the peptide was added” value in the data set on RBL-2H3 cells [5] (peptide alone, same range of concentrations, no antigen) is reported as “No secretory response”. For the same molecule, in [1], the “dE % (Dose 1)” value is −101% and the “dE % (Dose 2)” value was −130%.

As to “Cys-Cys-Asn-Tyr-Gly (CCNYG; not fully specified; printed: Cys-Cys-Asn-Tyr-Gly) [C3a13]”, the “inhibition of antigen-induced / IgE-dependent degranulation (β-hexosaminidase release)” value in the data set on RBL-2H3 cells [5] was “inhibit IgE-dependent degranulation of RBL-2H3 cells to a similar extent as did C3a2”.

Take “DSSNYIR [C3a11, Asp-Ser-Ser-Asn-Tyr-Ile-Arg]”: the “inhibition of antigen-induced / IgE-dependent degranulation (β-hexosaminidase release)” value in the data set on RBL-2H3 cells [5] is on record as “inhibit IgE-dependent degranulation of RBL-2H3 cells to a similar extent as did C3a2”.

With DSSNYITR [C3a14-P], in data set [1], the “dE % (Dose 1)” value is recorded as −72% and the “dE % (Dose 2)” value is listed as −97%.

With KKVFLDCCNYITELRRQHAR [C3a5], in [1], the “dE % (Dose 1)” value is −65% and the “dE % (Dose 2)” value is on record as −78%.

Consider “SVQLTEKRMDKVGKYPKELR [C3a1, reference compound]”, for which, in the data set with RBL-2H3 cells [5], the “inhibition of antigen-induced / IgE-dependent degranulation (β-hexosaminidase release)” value is “had no effect at all”.

B1: C5a: complement-derived peptide C5a (protein, UniProt P01031 678-751, looked up)
C5a anaphylatoxin: TLQKKIEEIAAKYKHSVVKKCCYDGACVNNDETCEQRAARISLGPRCIKAFTECCVVASQLRANISHKDMQLGR
modifications: C5a anaphylatoxin
On to B1, for which the “secretory response when added alone” value with RBL-2H3 cells [6] (peptide alone (Erdei et al, 1995)) was “none of the complement-peptides C3a and C5a triggered the secretory response”. Further, the “inhibition of antigen-induced degranulation of RBL-2H3” value with RBL-2H3 cells [6] (range of human C3a concentrations (Erdei et al, 1995)) is “had no effect at all”.

Turning to DSSNYITR-NH2 (also: FITC-labeled, position of label not given here) [FITC-labeled C3a14-P], the Fluorescence Mean (w/o background) is 25 in [7], 74 in data set [8] and 157 in data set [9].
